Reference: PubChem BioAssay AID248 (DTP/NCI, 2004)
Toxic doses and inconclusive results are not listed. Cut-off read from the data, not from the text of the source: active = T/C of 150% or more; inactive = T/C below 125%.

Test system: L1210 leukemia ip in BDF1 mice, survival T/C
Assay: NCI In Vivo Anticancer Drug Screen. Data for tumor model L1210 Leukemia (intraperitoneal) in B6D2F1 (BDF1) mice
Details: endpoint: mean survival time, higher = longer survival
Summary of the method: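 Mice bearing the transplanted tumor received compound or vehicle. Survival of the treated group was divided by that of the vehicle-treated control group to give the ratio.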

[1] = dose: 100.0 mg/kg/injection, schedule: Q04DX003 (ip), vehicle: saline with Tween-80
[2] = dose: 200.0 mg/kg/injection, schedule: Q04DX003 (ip), vehicle: saline with Tween-80
[3] = dose: 400.0 mg/kg/injection, schedule: Q04DX003 (ip), vehicle: saline with Tween-80
[4] = dose: 100.0 mg/kg/injection, schedule: Q01DX009 (ip), vehicle: Klucel (hydroxypropylcellulose) (HPC)
[5] = dose: 100.0 mg/kg/injection, schedule: Q04DX003 (ip), vehicle: Klucel (hydroxypropylcellulose) (HPC)
[6] = dose: 200.0 mg/kg/injection, schedule: Q01DX009 (ip), vehicle: Klucel (hydroxypropylcellulose) (HPC)
[7] = dose: 400.0 mg/kg/injection, schedule: Q01DX009 (ip), vehicle: Klucel (hydroxypropylcellulose) (HPC)
[8] = dose: 100.0 mg/kg/injection, schedule: Q01DX001 (ip), vehicle: carboxymethylcellulose (CMC)
[9] = dose: 200.0 mg/kg/injection, schedule: Q01DX001 (ip), vehicle: carboxymethylcellulose (CMC)
[10] = dose: 400.0 mg/kg/injection, schedule: Q01DX001 (ip), vehicle: carboxymethylcellulose (CMC)

Measured: T/C

CCOc1ccc(Nc2cc([N+](=O)[O-])ccc2C(=O)O)cc1
inactive: dose: 25.0 mg/kg/injection, schedule: Q04DX003 (ip), vehicle: saline with Tween-80 101 % of control | dose: 50.0 mg/kg/injection, schedule: Q01DX009 (ip), vehicle: saline with Tween-80 103 % of control | dose: 50.0 mg/kg/injection, schedule: Q04DX003 (ip), vehicle: saline with Tween-80 95 % of control | dose: 100.0 mg/kg/injection, schedule: Q01DX009 (ip), vehicle: saline with Tween-80 109 % of control | [1] 107 % of control | dose: 200.0 mg/kg/injection, schedule: Q01DX009 (ip), vehicle: saline with Tween-80 98 % of control | [2] 93 % of control

NC(N)=NC(=O)COc1ccc(Cl)cc1Cl
inactive: dose: 100.0 mg/kg/injection, schedule: Q04DX002 (ip), vehicle: saline + alcohol 100 % of control | dose: 200.0 mg/kg/injection, schedule: Q04DX002 (ip), vehicle: saline + alcohol 107 % of control

COc1ccc(C2=CC(O)CC(c3ccccc3)C2c2ccccc2)cc1 (stereo not drawn)
inactive: [1] 105 % of control | [2] 103 % of control | [3] 91 % of control

Cc1cc(Cl)cc(C)c1O
inactive: dose: 75.0 mg/kg/injection, schedule: Q04DX003 (ip), vehicle: saline 114 % of control | dose: 150.0 mg/kg/injection, schedule: Q04DX003 (ip), vehicle: saline 100 % of control | dose: 300.0 mg/kg/injection, schedule: Q04DX003 (ip), vehicle: saline 112 % of control

Cc1cc(CC(Cl)(C(F)(F)F)C(F)(F)F)cc(CC(Cl)(C(F)(F)F)C(F)(F)F)n1
inactive: dose: 12.5 mg/kg/injection, schedule: Q01DX009 (ip), vehicle: saline with Tween-80 108 % of control | dose: 25.0 mg/kg/injection, schedule: Q01DX009 (ip), vehicle: saline with Tween-80 106 % of control

CCCCN/C(C)=C/C(=O)/C=C(\C)NCCCC
inactive: [4] 94 % of control | [5] 117 % of control | [6] 110 % of control | dose: 200.0 mg/kg/injection, schedule: Q04DX003 (ip), vehicle: Klucel (hydroxypropylcellulose) (HPC) 96 % of control | [7] 95 % of control | dose: 400.0 mg/kg/injection, schedule: Q04DX003 (ip), vehicle: Klucel (hydroxypropylcellulose) (HPC) 100 % of control

Nc1nc(N)nc(-c2cccc(Cl)c2)n1
inactive: dose: 25.0 mg/kg/injection, schedule: Q04DX003 (ip), vehicle: Klucel (hydroxypropylcellulose) (HPC) 107 % of control | dose: 50.0 mg/kg/injection, schedule: Q04DX003 (ip), vehicle: Klucel (hydroxypropylcellulose) (HPC) 101 % of control | dose: 100.0 mg/kg/injection, schedule: Q04DX002 (ip), vehicle: Klucel (hydroxypropylcellulose) (HPC) 111 % of control | [5] 102 % of control

CCC1(C(C)C)SC(N)=NC1=O (stereo not drawn)
inactive: [8] 102 % of control | [9] 94 % of control | [10] 96 % of control

CC1CCCCN1Cc1ccccc1COC(=O)c1ccc([N+](=O)[O-])cc1Cl (stereo not drawn)
inactive: dose: 100.0 mg/kg/injection, schedule: Q04DX002 (ip), vehicle: saline with Tween-80 94 % of control | dose: 200.0 mg/kg/injection, schedule: Q04DX002 (ip), vehicle: saline with Tween-80 97 % of control

[N-]=[N+]=NS(=O)(=O)CCc1ccccc1
inactive: [1] 96 % of control | [2] 110 % of control | [3] 98 % of control

O=C(Nc1ncn[nH]1)C(F)(F)F
inactive: dose: 100.0 mg/kg/injection, schedule: Q01DX001 (ip), vehicle: saline 103 % of control | dose: 200.0 mg/kg/injection, schedule: Q01DX001 (ip), vehicle: saline 103 % of control | dose: 400.0 mg/kg/injection, schedule: Q01DX001 (ip), vehicle: saline 92 % of control

COC(=O)C1CCC(NS(=O)(=O)c2ccc(C)cc2)CC1 (stereo not drawn)
inactive: dose: 100.0 mg/kg/injection, schedule: Q01DX001 (ip), vehicle: Klucel (hydroxypropylcellulose) (HPC) 98 % of control | dose: 200.0 mg/kg/injection, schedule: Q01DX001 (ip), vehicle: Klucel (hydroxypropylcellulose) (HPC) 98 % of control | dose: 400.0 mg/kg/injection, schedule: Q01DX001 (ip), vehicle: Klucel (hydroxypropylcellulose) (HPC) 101 % of control

CCCCN(CCCC)C(=S)S[As](SC(=S)N(CCCC)CCCC)SC(=S)N(CCCC)CCCC
inactive: [4] 97 % of control | [6] 90 % of control | [7] 97 % of control

N/C(=N\N=C\c1cccc2ccccc12)N/N=C/c1cccc2ccccc12
inactive: dose: 15.0 mg/kg/injection, schedule: Q01DX Z (ip), vehicle: methylcellulose (MC) 101 % of control | dose: 30.0 mg/kg/injection, schedule: Q01DX Z (ip), vehicle: methylcellulose (MC) 89 % of control | dose: 60.0 mg/kg/injection, schedule: Q01DX Z (ip), vehicle: methylcellulose (MC) 102 % of control | dose: 60.0 mg/kg/injection, schedule: Q01DX Z (oral), vehicle: methylcellulose (MC) 87 % of control | dose: 120.0 mg/kg/injection, schedule: Q01DX Z (ip), vehicle: methylcellulose (MC) 97 % of control | dose: 120.0 mg/kg/injection, schedule: Q01DX Z (oral), vehicle: methylcellulose (MC) 110 % of control | dose: 180.0 mg/kg/injection, schedule: Q01DX Z (oral), vehicle: methylcellulose (MC) 101 % of control | dose: 240.0 mg/kg/injection, schedule: Q01DX Z (ip), vehicle: methylcellulose (MC) 97 % of control | dose: 240.0 mg/kg/injection, schedule: Q01DX Z (oral), vehicle: methylcellulose (MC) 102 % of control | dose: 360.0 mg/kg/injection, schedule: Q01DX Z (ip), vehicle: methylcellulose (MC) 91 % of control | dose: 360.0 mg/kg/injection, schedule: Q01DX Z (oral), vehicle: methylcellulose (MC) 96 % of control | dose: 480.0 mg/kg/injection, schedule: Q01DX Z (oral), vehicle: methylcellulose (MC) 93 % of control | dose: 540.0 mg/kg/injection, schedule: Q01DX Z (oral), vehicle: methylcellulose (MC) 96 % of control

[O]=[Sb]([OH])([c]1ccc(Cl)cc1)[c]1ccc(Cl)cc1
inactive: dose: 75.0 mg/kg/injection, schedule: Q01DX001 (ip), vehicle: saline 116 % of control

Cc1cc(C)c2[nH]c(=O)c(C)c(C)c2c1Br
inactive: dose: 100.0 mg/kg/injection, schedule: Q01DX001 (ip), vehicle: other 102 % of control | dose: 200.0 mg/kg/injection, schedule: Q01DX001 (ip), vehicle: other 94 % of control | dose: 400.0 mg/kg/injection, schedule: Q01DX001 (ip), vehicle: other 100 % of control

CC(C)(C)NCC(CN(CC(CNC(C)(C)C)C(=O)c1ccccc1)C(C)(C)C)C(=O)c1ccccc1 (stereo not drawn)
inactive: dose: 12.5 mg/kg/injection, schedule: Q01DX009 (ip), vehicle: Klucel (hydroxypropylcellulose) (HPC) 104 % of control | dose: 25.0 mg/kg/injection, schedule: Q01DX009 (ip), vehicle: Klucel (hydroxypropylcellulose) (HPC) 101 % of control | dose: 50.0 mg/kg/injection, schedule: Q01DX009 (ip), vehicle: Klucel (hydroxypropylcellulose) (HPC) 106 % of control | [5] 93 % of control

CCOC(CNC(=S)Nc1ccccc1)OCC
inactive: [8] 89 % of control | [9] 95 % of control | [10] 95 % of control
